Measured values taken from patent US12583848B2, “Isoxazole-3-carboxamide derivatives and their use for treatment of diseases caused by virus infection” (Collaborations Pharmaceuticals, Inc., priority 2019, dated 2026).
In brackets after ≈: the same amount, converted by molar mass. Several values for one entry are separate records, joined by “and”; a condition that tells them apart may be missing. Equal values may be shown once. Read-outs that look alike come from different tables or passages of the source.

Tests used:
PXR = PXR (Homo sapiens, UniProt O75469); experiment: biochemical
Chain of PXR (O75469 111-434 limits assumed): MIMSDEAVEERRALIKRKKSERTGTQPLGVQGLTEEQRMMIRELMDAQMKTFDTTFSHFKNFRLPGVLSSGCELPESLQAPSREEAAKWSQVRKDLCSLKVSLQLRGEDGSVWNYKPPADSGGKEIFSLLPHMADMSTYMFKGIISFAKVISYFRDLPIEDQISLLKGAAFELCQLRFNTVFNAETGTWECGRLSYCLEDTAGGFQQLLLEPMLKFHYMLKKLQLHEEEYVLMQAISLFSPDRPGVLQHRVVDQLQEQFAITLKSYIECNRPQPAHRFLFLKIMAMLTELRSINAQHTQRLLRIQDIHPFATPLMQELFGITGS

[1] = tested on: CVB3 97927-I1207T (pleconaril-resistant variant); format: cell-based, coxsackievirus B3
[2] = tested on: polio virus-1 (strain Mahoney); experiment: organism not typed; format: cell-based; set-up: SI50: unit not given beside the values
mouse-adapted EV D68 = experiment: microbe, parasite or virus in culture; format: cell-based; set-up: SI50: unit not given beside the values
[3] = tested on: viruses resistant to pleconaril; experiment: Inhibition of replication of a broad spectrum of EV in vitro; format: cell-based; conditions: read-out: IC50 values for viruses resistant to pleconaril
Protein binding, human = format: in vitro ADME
Description: (§1) In vitro ADME studies were performed on compound 8.

[4] = Microsomal stability, human liver microsomes; format: in vitro ADME
Description: as §1

Solubility = format: physicochemical; conditions: pH 7.4, aqueous buffer
Description: as §1

[5] = tested on: influenza A virus, subtype H1N1 (strain California/07/2009); experiment: microbe, parasite or virus in culture; format: cell-based; set-up: SI50: unit not given beside the values
rhinovirus A2 (RV-A2) = experiment: organism not typed; format: cell-based; conditions: HeLa, 72 h, read-out: IC50 against Rhinoviruses (RV) RV-A2
[6] = tested on: enterovirus 71 (strain Tainan/4643/98); experiment: microbe, parasite or virus in culture; format: cell-based; set-up: SI50: unit not given beside the values
rhinovirus B5 (RV-B5) = experiment: organism not typed; format: cell-based; conditions: HeLa cells, CPE inhibition, 72 hours; n.a. = not active; read-out: IC50 against Rhinoviruses (RV) RV-B5
[7] = Cell permeability (Caco-2); format: in vitro ADME; conditions: human, Caco-2
Description: (§2) In vitro ADME studies were performed on compound 8. Cell permeability (Caco-2) results were as follows: Apical (A) to (Basolateral) B 8.8×10^−4 cm/s; […]

Caco-2 = experiment: Cell permeability (Caco-2); format: in vitro ADME; conditions: concluded from Caco-2 efflux
Description: as §2

Protein binding, mouse = format: in vitro ADME
Description: as §1

CYP3A4 = conditions: for CYP3A4 induction, % of control: control = rifampicin; for CYP3A4 induction (fold): cryopreserved hepatocytes, midazolam substrate
cytochrome P450 = experiment: Effect on cytochrome P450 enzyme activity; format: in vitro ADME
[8] = Pharmacokinetic study in mice; format: in vivo, white BALB/c male mice
Description: The pharmacokinetics of the compound 8 has been studied in white BALB/c male mice. 22 animals with average body weight of 20 g were selected for the study. Before the experiment the animals were kept on standard vivarium ration with dry pelleted feed. All the test animals had free access to water but were deprived of food for 1 hour before administration of the compound. This regimen was continued for another hour after the administration. […] The animals were euthanized by decapitation for blood sampling. […] Blood was collected in heparinized tubes and centrifuged at 3500 RPM. Plasma was separated from formed elements and immediately frozen at -20° C. in freezer. This storage continued before transferring of plasma for analysis. Serum from 6 untreated animals was used as control and for equipment calibration with compound. Mice brain was immediately frozen at -120° C. Plasma separation: […] Sample preparation: A mixture of 50 μL of plasma and 150 μL of MeCN by intensive shaking (Vortex) for 30 sec. Centrifugation 14000 g for 4 min. […] See also FIG. 1.

[9] = tested on: CVB3 97927-I1207M (pleconaril-resistant variant); format: cell-based, coxsackievirus B3
[10] = tested on: CVB3 97927-I1207K (pleconaril-resistant variant); format: cell-based, coxsackievirus B3
[11] = tested on: Enterovirus D68 (EV-D68 MP30 PP); format: in vivo, AG129 mice; conditions: for weight loss (percentage of initial body weight) following infection: 100 mg/kg/d PO, EV-D68 infected AG129 mice, days 1-5
HeLa cells = conditions: human
[12] = Microsomal stability, mouse liver microsomes; format: in vitro ADME
Description: as §1

[13] = mouse, in vivo, po
rhinovirus B14 (RV-B14) = experiment: organism not typed; format: cell-based; conditions: HeLa, 72 h, read-out: IC50 against Rhinoviruses (RV) RV-B14
[14] = read-out: Protein binding, bound (converted)
[15] = mice, 100 mg/kg intragastric, plasma

Cc1cc(-c2noc(C(F)(F)F)n2)ccc1OCCCc1cc(C(=O)N(C)C)no1 [Compound 8, N,N-dimethyl-5-(3-{2-methyl-4-[5-(trifluoromethyl)-1,2,4-oxadiazol-3-yl]phenoxy}propyl)isoxazole-3-carboxamide] gave an IC50 (PXR) of over 100000 nM, an IC50 [1] of 10 nM and an SI50 [2] of 11. It also gave an EC50 ([2]; Vero 76) of 320 nM, an SI50 (mouse-adapted EV D68) of 173 and an EC50 (mouse-adapted EV D68; Enterovirus D, EVD68) of 23 nM. The IC50 [3] was 40 to 640 nM, the Mutagenicity (Escherichia coli PQ37) was “NO” and the “Protein binding, stability” value (Protein binding, human) was 93.9%. The fraction unbound (Protein binding, human; [14]) was 0.003, the half-life [4] was 55.3 min and the microsomal CLint [4] was 25.1 µL/min/mg. The solubility (Solubility) was 0.11 µM (≈ 0.0467 µg/mL), the SI50 [5] was 4.3 and the EC90 ([5]; Influenza A virus, H1N1) was 4400 nM. For the same compound, the IC50 (rhinovirus A2 (RV-A2)) was 410 nM, the SI50 [6] was 24 and the EC50 ([6]; Enterovirus A, Vero 76) was 940 nM. The IC50 (rhinovirus B5 (RV-B5)) was 2260 nM, the efflux ratio [7] was 3.5 and the P-gp substrate (Caco-2) was “likely P-gp substrate”. For the same compound, the “Protein binding, stability” value (Protein binding, mouse) was 88.1%, the fraction unbound (Protein binding, mouse; [14]) was 0.002 and the “CYP3A4 induction, % of control” value (CYP3A4; 1 μM) was 3 % of control. For the same compound, the “CYP3A4 induction (fold)” value (CYP3A4; 1 μM) was 1.2 ×, the “CYP3A4 induction, % of control” value (CYP3A4; 10 μM) was 7 % of control and the “CYP3A4 induction (fold)” value (CYP3A4; 10 μM) was 1.4 ×. The “effect on cytochrome P450 enzyme activity” value (cytochrome P450) was “without affecting cytochrome P450 enzyme activity”, the “Concentration in mice plasma” value ([8]; 0.50 hours, individual mice, 100 mg/kg intragastric, 100 mg/kg) was 963.29 ng/mL and 2031.52 ng/mL and 1979.28 ng/mL and 2114.06 ng/mL and 1464.12 ng/mL and the “Concentration in mice plasma” value ([8]; 1 hour, individual mice, 100 mg/kg intragastric, 100 mg/kg) was 660.65 ng/mL and 1138.34 ng/mL. The “Concentration in mice plasma” value ([8]; 2 hours, individual mice, 100 mg/kg intragastric, 100 mg/kg) was 667.90 ng/mL and 379.89 ng/mL and 461.99 ng/mL, the “Concentration in mice plasma” value ([8]; 3 hours, individual mice, 100 mg/kg intragastric, 100 mg/kg) was 344.86 ng/mL and 107.10 ng/mL and 403.55 ng/mL and the “Concentration in mice plasma” value ([8]; 5 hours, individual mice, 100 mg/kg intragastric, 100 mg/kg) was 228.15 ng/mL and 74.82 ng/mL and 147.00 ng/mL. The “Concentration in mice plasma” value ([8]; 7 hours, individual mice, 100 mg/kg intragastric, 100 mg/kg) was 90.82 ng/mL and 44.49 ng/mL and 13.49 ng/mL and 45.70 ng/mL, the concentration at 0.5 h ([8]; male, BALB/c, mouse, plasma, oral, 100 mg/kg, 0.50 hours, 100 mg/kg intragastric) was 1710 ng/mL and the concentration at 1 h ([8]; male, BALB/c, mouse, plasma, oral, 100 mg/kg, 1 hour, 100 mg/kg intragastric, read-out: Concentration in mice plasma, Average) was 966 ng/mL. It also gave a concentration at 1 h ([8]; male, BALB/c, mouse, plasma, oral, 100 mg/kg, 1 hour, individual mice, 100 mg/kg intragastric, read-out: Concentration in mice plasma) of 1100 ng/mL, a concentration at 2 h ([8]; male, BALB/c, mouse, plasma, oral, 100 mg/kg, 2 hours, 100 mg/kg intragastric, read-out: Concentration in mice plasma, Average) of 536 ng/mL and a concentration at 2 h ([8]; male, BALB/c, mouse, plasma, oral, 100 mg/kg, 2 hours, individual mice, 100 mg/kg intragastric, read-out: Concentration in mice plasma) of 634 ng/mL. For the same compound, the concentration at 3 h ([8]; male, BALB/c, mouse, plasma, oral, 100 mg/kg, 3 hours, 100 mg/kg intragastric) was 285 ng/mL, the concentration at 5 h ([8]; male, BALB/c, mouse, plasma, oral, 100 mg/kg, 5 hours, 100 mg/kg intragastric) was 124 ng/mL and the concentration at 7 h ([8]; male, BALB/c, mouse, plasma, oral, 100 mg/kg, 7 hours, 100 mg/kg intragastric) was 49.6 ng/mL. The AUC ([8]; male, BALB/c, mouse, po, mice, 100 mg/kg intragastric, plasma, read-out: AUC0-oo) was 3020 ng·h/mL, the oral bioavailability ([8]; mice) was “very high oral bioavailability” and the CL [8, 15] was 0.66 L/h. It also gave a Cmax. [8, 15] of 1710.5 ± 489.2 ng/mL, an MRT [8, 15] of 129 min and a T1/2 [8, 15] of 94.8 min. It also gave a Tmax. [8, 15] of 30 min, a Vd [8, 15] of 1.52 L and a kel [8, 15] of 0.4373 h⁻¹. The IC50 [9] was 4 nM, the IC50 [10] was 3670 nM and the “weight loss (percentage of initial body weight) following infection” value [11] was “protected mice from weight loss”. For the same compound, the “weight loss (percentage of initial body weight) following infection” value ([11]; listed as compound 8) was “significant protection from weight loss”, the blood virus ([11]; day 5 post-infection) was “No virus was detected” and the CC50 (HeLa cells) was 13400 nM. The CC50 (in vitro) was 52000 nM, the “microsomal stability (verdict)” value [12] was “unstable” and the half-life ([12]; read-out: half-life (t1/2)) was 19.6 min. For the same compound, the microsomal CLint ([12]; read-out: intrinsic clearance (CLint)) was 70.6 µL/min/mg, the “Maximum tolerated dose (MTD)” value [13] was “at least 100 milligrams per kilogram body weight per day” and the IC50 (rhinovirus B14 (RV-B14)) was 70 nM.
